This passage reports TGI results from PubChem BioAssay (NCI).

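These data come from cells grown in 96-well plates and exposed to compound for 48 hours at five concentrations. Definition used: TGI = concentration required for complete inhibition of growth.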 Where a SMILES comes first, the peptide text is derived from it. The star is where a group is joined. Bn = c1ccc(C*)cc1

Common to all, as to experiment: growth of human tumour cells (NCI), 48 h
For experiment [1], the system named is 786-0 renal.
For experiment [2], the system named is MDA-N.
In experiment [3] the test system is UACC-257 melanoma.
In experiment [4] the test system is SF-539 CNS.
Experiment [5] relates to SF-268 CNS.
The test system of experiment [6] is A549 NSCLC.
Experiment [7] has as its system HOP-62 NSCLC.
Experiment [8] deals with OVCAR-4 ovarian.
Experiment [9] has as its system COLO 205 colon.
The test system of experiment [10] is MDA-MB-435.
Experiment [11] relates to HOP-92 NSCLC.

For `O=C1CCc2ccc3c(c21)CC1(Cc2ccccc2C1)C3`, the TGI was 48.1 µM in [1]; more than 100 µM in experiment [2]; 35.7 µM in [3]; more than 100 µM in [4]; more than 100 µM in experiment [5]; 29.6 µM in [6]. Further, the TGI in experiment [7] is more than 100 µM; in experiment [8] it was more than 100 µM; in [9], more than 100 µM; in [10], more than 100 µM; in experiment [11] it was 45.9 µM.

In the case of `CC(C)CCn1nc(N)c2nc3ccccc3nc21`, the TGI in [1], in experiment [2], in experiment [3], in experiment [4], in experiment [5] and in [6] was more than 100 µM throughout. Moreover, the TGI in [7], in experiment [8], in [10] and in experiment [11] was more than 100 µM in each case.

With `Cc1nn(C(=O)c2ccc(Cl)cc2)c2c1C(c1ccc(O)cc1)SC(N)=N2` (centres undefined), the TGI in experiment [1], in experiment [2], in [3], in experiment [4], in [5] and in experiment [6] was more than 10 µM each time. Moreover, the TGI in experiment [7], in experiment [8], in [9], in experiment [10] and in experiment [11] was more than 10 µM in each case.

Turning to `COc1ccc(/C=N/N2C(=O)c3c(N)c(C#N)c(-c4ccccc4)c(-c4ccccc4)c3C2=O)cc1`, the TGI in experiment [1], in [2], in experiment [3], in [4], in experiment [5] and in experiment [6] was more than 100 µM throughout. For the same molecule, the TGI in [8], in experiment [9], in [10] and in experiment [11] was more than 100 µM throughout.

With `COC(=O)C(CC(C)C)NC(=O)C(N)Cc1ccc(OCc2ccccc2)cc1` (centres undefined) (H-Tyr(Bn)-Leu-OMe; configuration not given here), the TGI in experiment [1], in [2], in experiment [3], in experiment [4], in [5] and in [6] was more than 10 µM throughout. The TGI in experiment [7], in experiment [8], in [9], in experiment [10] and in experiment [11] was more than 10 µM throughout.

Regarding `CC1C(c2ccc3c(c2)OCO3)c2cc3c(cc2OC1N1CCOCC1)OCO3` (centres undefined), the TGI in experiment [1] was more than 100 µM; in experiment [2], 29.1 µM; in experiment [3], more than 100 µM; in experiment [4], 49.5 µM; in experiment [5] it was more than 100 µM; in [6], more than 100 µM. Also, the TGI in experiment [7] was 78.6 µM; in [8], more than 100 µM; in [9], 47.4 µM; in experiment [10], 27.6 µM; in [11] it was 78.4 µM.

For `COC(=O)c1cc2c(cc1CC(Cc1ccc3c(c1)CCC3)C(=O)OC)CCC2` (centres undefined), the TGI in experiment [1] is more than 100 µM; in [2] it was more than 100 µM; in experiment [3], 81.3 µM; in [4] it was more than 100 µM; in experiment [5], more than 100 µM; in [6], more than 100 µM. Besides, the TGI in experiment [7] is more than 100 µM; in [8], 81.8 µM; in experiment [9], more than 100 µM; in experiment [10], more than 100 µM; in [11] it was more than 100 µM.

Turning to `C=C(C)[C@@]1(O[Si](C)(C)C)CCCC[C@@H]1CC(Sc1ccccc1)Sc1ccccc1`, the TGI in experiment [1] stood at 28.6 µM; in [2], 32.7 µM; in experiment [3], 29.7 µM; in [4], 26.5 µM; in experiment [5], 28.2 µM; in experiment [6], 23.1 µM. Moreover, the TGI in experiment [7] came to 27.5 µM; in experiment [8] it was 26.2 µM; in experiment [9], 38.9 µM; in experiment [10], 31.6 µM; in experiment [11], 26 µM.

Regarding `CCOC(=O)[C@@H]1ON2O[C@@H](OC3CCCC3(c3ccccc3)c3ccccc3)C[C@H]3OC(=O)[C@@H]1C32` (some centres undefined), the TGI in experiment [1] worked out at 79 µM; in experiment [2], 67.6 µM; in experiment [3], 50.6 µM; in [4], 68 µM; in [5], 70.2 µM; in [6], 57.4 µM. The TGI in [7] is more than 100 µM; in experiment [9], more than 100 µM; in [10], 34.2 µM; in [11], more than 100 µM.

With `COc1ccc(N=Nc2c3c(c(O)c4ccccc24)CCC(C)(C)O3)cc1`, the TGI in [1] was 73.8 µM; in [2], 30.6 µM; in experiment [3] it was 37.5 µM; in [4], 62.3 µM; in [5] it was 31.5 µM; in experiment [6] it was 39 µM. Also, the TGI amounted to 52.9 µM in experiment [7]; 50.4 µM in experiment [8]; 72.8 µM in experiment [9]; 32.4 µM in experiment [10]; 47.1 µM in experiment [11].

On to `COc1cc(OCc2ccc3nc(OC)c(OC)nc3c2)cc(OC)c1OC`, for which the TGI in experiment [1], in [2], in experiment [3], in experiment [4], in experiment [5] and in experiment [6] was more than 10 µM in each case. Further, the TGI in experiment [7], in experiment [8], in experiment [9], in experiment [10] and in experiment [11] was more than 10 µM each time.

Regarding `O=C1CC(Sc2nc3ccc(I)cc3c(=O)n2Cc2ccccc2)C(=O)NN1` (centres undefined), the TGI in [1] amounted to 28.4 µM; in [2], 33.4 µM; in experiment [3] it was 35.3 µM; in experiment [4], 35.5 µM; in experiment [5], 30.1 µM; in experiment [6] it was 89.4 µM. Further, the TGI in [7] was 35.1 µM; in experiment [8], 36.8 µM; in experiment [9] it was 34.5 µM; in experiment [10] it was 33.9 µM; in [11] it was 37.2 µM.

Turning to `O=C1CCCc2cc3c(cc21)CC1(C3)Cc2ccc3c(c2C1)C(=O)CCC3` (centres undefined), the TGI was more than 100 µM in experiment [1]; 26.1 µM in experiment [2]; 26.5 µM in experiment [3]; more than 100 µM in [4]; more than 100 µM in experiment [5]; more than 100 µM in experiment [6]. The TGI in [7] was more than 100 µM; in experiment [8], more than 100 µM; in experiment [9] it was 34.9 µM; in experiment [10] it was 23.8 µM; in experiment [11], more than 100 µM.

On to `O=C(CCCN1CCC2(CC1)C(=NC1CCCCC1)NC(=O)N2c1ccccc1)c1ccc(F)cc1`, for which the TGI in experiment [1] was 45 µM; in experiment [2] it was 34.9 µM; in experiment [3] it was 36 µM; in experiment [4] it was 33.9 µM; in experiment [5] it was 40.1 µM; in [6], more than 100 µM. Further, the TGI in experiment [7] was 37.5 µM; in [8], more than 100 µM; in experiment [9], 31.2 µM; in experiment [10] it was 38.8 µM; in experiment [11], 37.8 µM.

As to `CC1(C)[C@@H](Cn2cnc3c(Cl)nc(N)nc32)CC[C@@]1(C)CO`, the TGI in [1] is more than 100 µM; in experiment [2], 91.7 µM; in [3] it was 79.2 µM; in [4], more than 100 µM; in [5], 43.3 µM; in experiment [6], more than 100 µM. Moreover, the TGI in experiment [7] is more than 100 µM; in experiment [8], more than 100 µM; in experiment [9] it was more than 100 µM; in [10], 64.2 µM; in experiment [11], more than 100 µM.

Regarding `COc1c(O)c(O)cc2c1-c1ccc(OC)c(=O)cc1C(NC(C)=O)CC2` (centres undefined), the TGI is 74.8 µM in experiment [1]; 4.84 µM in [2]; 76.9 µM in [3]; 10.4 µM in experiment [4]; more than 95.2 µM in [5]; more than 100 µM in experiment [6]. The TGI in experiment [7] amounted to 87.1 µM; in experiment [8], 77.2 µM; in experiment [9], 9.07 µM; in [10] it was 3.75 µM; in [11] it was 17.8 µM.

In the case of `Nc1nc(Nc2ccc(Cl)cc2)sc1C(=O)c1cccs1`, the TGI in experiment [1] is more than 100 µM; in experiment [2], more than 100 µM; in experiment [3], more than 100 µM; in experiment [4], 61 µM; in [5] it was 83.4 µM; in experiment [6], more than 100 µM. For the same molecule, the TGI in experiment [7] was 53.6 µM; in experiment [8] it was more than 100 µM; in experiment [9], more than 100 µM; in [10], more than 100 µM; in experiment [11], more than 100 µM.

As to `COC(=O)c1cc(C)ccc1CC(Cc1ccc(C)cc1)C(=O)OC` (centres undefined), the TGI in [1] is more than 100 µM; in experiment [2], more than 100 µM; in [3], more than 100 µM; in experiment [4], more than 100 µM; in experiment [5], more than 35.3 µM; in experiment [6] it was more than 100 µM. Besides, the TGI in [7] is more than 100 µM; in experiment [8], more than 100 µM; in [9], more than 100 µM; in experiment [10] it was more than 100 µM; in [11], 60.2 µM.

For the molecule `Cc1cc2c(nn1)-c1ccccc1C2=O`, the TGI in experiment [1], in [2], in experiment [4], in experiment [5], in [6] and in experiment [7] was more than 10 µM in each case. Moreover, the TGI in experiment [8], in experiment [9], in [10] and in experiment [11] was more than 10 µM each time.

Regarding `CC(C)(C)OC(=O)C1C(=O)NC(=O)CC1C(COCc1ccccc1)OCc1ccccc1` (centres undefined), the TGI in experiment [1] was 45.3 µM; in experiment [2], 36.2 µM; in experiment [3], 41.4 µM; in experiment [4], 40.6 µM; in [5], 59.3 µM; in experiment [6], more than 100 µM. In addition, the values for the TGI in experiment [7], in [10] and in experiment [11] were 26.6 µM, 49.7 µM and 30.5 µM, respectively.

Regarding `COC(=O)[C@H](Cc1ccccc1)NC(=O)c1ccc(CNC(=O)/C=C/c2cccc(Oc3ccccc3)c2)cc1`, the TGI was more than 100 µM in [1]; 15.3 µM in experiment [2]; 21.8 µM in experiment [3]; 59.3 µM in [5]; more than 100 µM in experiment [6]; more than 100 µM in [7]. Also, the TGI was more than 100 µM in experiment [8], 42.1 µM in experiment [9], 28.3 µM in experiment [10] and 21 µM in experiment [11].

As to `C[C@]1(S(=O)(=O)c2ccccc2)C[C@H]2N(Cc3ccccc3)[C@@H]1CCC21OCCO1`, the TGI is more than 100 µM in [1]; more than 100 µM in experiment [2]; 69.3 µM in experiment [3]; more than 100 µM in experiment [5]; more than 100 µM in experiment [6]; more than 100 µM in experiment [7]. Besides, the TGI in experiment [8], in experiment [9], in experiment [10] and in experiment [11] was more than 100 µM throughout.

Regarding `CCCOC(=O)NC(C)C(=O)NC(CCC(=O)NC(CCCC(N)C(=O)O)C(=O)NC(C)C(=O)O)C(=O)O` (centres undefined), the TGI was more than 100 µM in experiment [1]; 44.6 µM in [2]; 31.3 µM in [4]; 42.3 µM in experiment [5]; more than 100 µM in experiment [6]; more than 100 µM in [7]. The TGI is 70.6 µM in experiment [8], 48.7 µM in [9], more than 100 µM in experiment [10] and 77.4 µM in experiment [11].

Consider `CCOC(=O)C(C)c1nc2c(Cl)c3ncccc3cc2[nH]c1=O` (centres undefined), for which the TGI in experiment [1], in experiment [2], in experiment [3], in experiment [5], in experiment [6] and in experiment [7] was more than 100 µM throughout. The TGI in experiment [8], in experiment [9], in experiment [10] and in experiment [11] was more than 100 µM each time.

In the case of `c1ccc(-c2cnc(-c3ccc(-c4ncc(-c5ccccc5)o4)cc3)o2)cc1`, the TGI in experiment [1], in experiment [2], in [3], in experiment [5], in experiment [6] and in [7] was more than 100 µM each time. The TGI in [8], in experiment [9], in [10] and in experiment [11] was more than 100 µM in each case.
